According to patent US8211931B2, “Active compound combinations having insecticidal and acaricidal properties” (Bayer Cropscience AG, priority 2006, dated 2012):

Experiments:
Type in all cases: in vivo
Psylla pyri = assay: Field test on pear trees against pear psyllids, kill of L-1 and L-4 nymphs; settings: for Activity (% Abbott) Psylla piri L-1: L-1 nymphs; for Activity (% Abbott) Psylla piri L-4: L-4 nymphs
Experimental: In 4 replications, pear trees of the cultivar “Conference” of a height of about 3 m are treated against pear psyllids, Psylla pyri. Here, the active compound (I-4′) (100 OD) and the commercial standard Amitraz (UL 400) are applied at the stated application rates. The application is carried out using a knapsack sprayer and an application rate of 1000 l of water/ha. The beneficial species Anthocoris nemoralis appears 14 days after the treatment.
Evaluation is carried out 4, 8 and 14 days after the treatment by evaluating the kill of the L-1 nymphs and the L-4 nymphs on the branches.

Eriosoma lanigerum = assay: Field test on apple trees against woolly apple aphids, kill according to Abbott
Experimental: In three replications, in each case three about 25-year old apple trees (crown height about 2 m) of the cultivar “Elan” are treated against woolly apple aphids, Eriosoma lanigerum. Here, the active compound (I-4′) (150 OD) and the commercial standard clothianidin (WG 50) are tested comparatively at the stated application rates in the presence of the woolly aphid parasite (beneficial species) Aphelinus mali. The application is carried out using an atomizer at a water application rate of 500 l/ha. Both one and two applications at an interval of 34 days are carried out.
Evaluation is carried out 7, 30, 44, 52, 59, 66 and 73 days after the first treatment by evaluating the kill of the adult pests and the number of parasitic pests in each case 10 colonies according to Abbott.

Bemisia tabaci = Bemisia tabaci test (cotton leaves sprayed, mirid bugs added); settings: 0.16 ppm, active compound alone
Experimental: (§1) To produce a suitable preparation of active compound, 1 part by weight of active compound is mixed with the stated amounts of solvent and emulsifier, and the concentrate is diluted with emulsifier-containing water to the desired concentration.
Cotton leaves (Gossypium hirsutum) infested by the whitefly (Bemisia tabacii) are treated by being sprayed with the preparation of active compound at the desired concentration.
After the desired period of time, a defined amount of mirid bugs (Macrolophus caliginosus) is added.
After the desired period of time, the kill of the pest in % is determined. 100% means that all whiteflies have been killed; 0% means that none of the whiteflies have been killed. The determined kill rates are entered into Colby's formula.

Myzus persicae = Myzus persicae test (cabbage leaves sprayed, ladybird larvae added); settings: 4 ppm, active compound alone
Experimental: as §1
Cabbage leaves (Brassica oleracea) infested by the green peach aphid (Myzus persicae) are treated by being sprayed with the preparation of active compound at the desired concentration.
After the desired period of time, a defined amount of ladybird larvae (Coccinella septempunctata) is added.
After the desired period of time, the kill of the pest in % is determined. 100% means that all aphids have been killed; 0% means that none of the aphids have been killed.
The determined kill rates are entered into Colby's formula.

[1] = 8 d, 400 g/ha/m crown height, UL 400
[2] = 14 d, 400 g/ha/m crown height, UL 400
[3] = 8 d, 75 g/ha/m crown height, 100 OD
[4] = 14 d, 75 g/ha/m crown height, 100 OD

For `Cc1ccc(/N=C/N(C)/C=N/c2ccc(C)cc2C)c(C)c1` [Amitraz, reference compound], the “Activity (% Abbott) Psylla piri L-1” value (Psylla pyri; 4 d, 400 g/ha/m crown height, UL 400, pear trees) was 23.6 % Abbott, the “Activity (% Abbott) Psylla piri L-1” value (Psylla pyri; [1]) was 41.0 % Abbott and the “Activity (% Abbott) Psylla piri L-1” value (Psylla pyri; [2]) was 41.8 % Abbott. For the same compound, the “Activity (% Abbott) Psylla piri L-4” value (Psylla pyri; 4 d, 400 g/ha/m crown height, UL 400) was 0.0 % Abbott, the “Activity (% Abbott) Psylla piri L-4” value (Psylla pyri; [1]) was 44.6 % Abbott and the “Activity (% Abbott) Psylla piri L-4” value (Psylla pyri; [2]) was 44.4 % Abbott.
`CN/C(=N\[N+](=O)[O-])NCc1cnc(Cl)s1` [Clothianidin, clothianidin, reference compound] was tested, and the “Activity (% Abbott) Eriosoma lanigerum” value (Eriosoma lanigerum; 7 d, 37.5 g/ha/m crown height, WG 50, two treatments, apple trees, Aphelinus mali present) was 71 % Abbott, the “Activity (% Abbott) Eriosoma lanigerum” value (Eriosoma lanigerum; 30 d, 37.5 g/ha/m crown height, WG 50, two treatments) was 76 % Abbott and the “Activity (% Abbott) Eriosoma lanigerum” value (Eriosoma lanigerum; 44 d, 37.5 g/ha/m crown height, WG 50, two treatments) was 85 % Abbott. The “Activity (% Abbott) Eriosoma lanigerum” value (Eriosoma lanigerum; 52 d, 37.5 g/ha/m crown height, WG 50, two treatments) was 81.8 % Abbott, the “Activity (% Abbott) Eriosoma lanigerum” value (Eriosoma lanigerum; 59 d, 37.5 g/ha/m crown height, WG 50, two treatments) was 81.8 % Abbott and the “Activity (% Abbott) Eriosoma lanigerum” value (Eriosoma lanigerum; 66 d, 37.5 g/ha/m crown height, WG 50, two treatments) was 80 % Abbott. The “Activity (% Abbott) Eriosoma lanigerum” value (Eriosoma lanigerum; 73 d, 37.5 g/ha/m crown height, WG 50, two treatments) was 80 % Abbott.
For `CCOC(=O)OC1=C(c2cc(C)ccc2C)C(=O)N[C@]12CC[C@@H](OC)CC2` [Ex. I-4′], the “Kill in % after 14 d” value (Bemisia tabaci) was 0%, the “Kill in % after 7 d” value (Myzus persicae) was 10% and the “Activity (% Abbott) Eriosoma lanigerum” value (Eriosoma lanigerum; 7 d, 75 g/ha/m crown height, 150 OD, one treatment, apple trees, Aphelinus mali present) was 48 % Abbott. The “Activity (% Abbott) Eriosoma lanigerum” value (Eriosoma lanigerum; 30 d, 75 g/ha/m crown height, 150 OD, one treatment) was 95 % Abbott, the “Activity (% Abbott) Eriosoma lanigerum” value (Eriosoma lanigerum; 44 d, 75 g/ha/m crown height, 150 OD, one treatment) was 99 % Abbott and the “Activity (% Abbott) Eriosoma lanigerum” value (Eriosoma lanigerum; 52 d, 75 g/ha/m crown height, 150 OD, one treatment) was 99.4 % Abbott. The “Activity (% Abbott) Eriosoma lanigerum” value (Eriosoma lanigerum; 59 d, 75 g/ha/m crown height, 150 OD, one treatment) was 98.2 % Abbott, the “Activity (% Abbott) Eriosoma lanigerum” value (Eriosoma lanigerum; 66 d, 75 g/ha/m crown height, 150 OD, one treatment) was 98 % Abbott and the “Activity (% Abbott) Eriosoma lanigerum” value (Eriosoma lanigerum; 73 d, 75 g/ha/m crown height, 150 OD, one treatment) was 98 % Abbott. The “Activity against Eriosoma lanigerum” value (Eriosoma lanigerum; after two treatments) was 100%, the “Activity (% Abbott) Psylla piri L-1” value (Psylla pyri; 4 d, 75 g/ha/m crown height, 100 OD, pear trees) was 62.7 % Abbott and the “Activity (% Abbott) Psylla piri L-1” value (Psylla pyri; [3]) was 69.5 % Abbott. The “Activity (% Abbott) Psylla piri L-1” value (Psylla pyri; [4]) was 76.6 % Abbott, the “Activity (% Abbott) Psylla piri L-4” value (Psylla pyri; 4 d, 75 g/ha/m crown height, 100 OD) was 91.4 % Abbott and the “Activity (% Abbott) Psylla piri L-4” value (Psylla pyri; [3]) was 98.4 % Abbott. For the same compound, the “Activity (% Abbott) Psylla piri L-4” value (Psylla pyri; [4]) was 99.3 % Abbott.
